Results published in US20120190707A1, “SELECTIVE INHIBITORS OF AKT AND METHODS OF USING SAME” (priority 2008, published 2012).
Entries after “also recorded” stand apart in the source; their conditions may differ.

Tests used:
NRAS/Ink4a mice = experiment: Melanoma development in NRAS/Ink4a mice; format: in vivo
Protocol: The NRAS/Ink4a mice harbor a Q61K NRAS activating mutation, as is seen in 15% of human melanomas, on an Ink4a-deficient background, which mimics the mutations often seen in this locus (p16) in human melanoma.
The NRAS/Ink4a mouse develops melanoma with penetrance of about 25-50% which is often accompanied by metastasis to the lymph nodes.
To examine the effect of BI-69A11 treatment on in vivo melanoma development, BI-69A11 was administered to a cohort of 30 mice twice per week (IP, 0.5 mg/kg), starting at week 28 after NRAS expression. A control group of 30 mice received the control vehicle formulation. In this model, by 28 weeks many mice already developed melanoma. Those were not included in our study which was restricted to animals that have not yet developed melanoma. Nevertheless, in a clinical setting, preventive treatment could be administered prior to tumor development, at a stage where early stages of development had been initiated.
NRAS expression was induced in NRAS/INK4a mice (time 0) and the mice were maintained for 40 weeks. Starting at 28 weeks, animals received BI-69A11 at 0.5 mg/kg by IP injection twice weekly.
NRAS expression was induced in NRAS/INK4a mice and 28 weeks later treatment with BI-69A11 was initiated. Internal tumors developed in this model were fibrosarcomas, whereas the skin tumors were melanomas (confirmed by immunostaining with S100 and DCT).
An additional experimental group included animals from the same melanoma model, albeit, those were treated earlier (after 10 weeks rather than 28).

AKT = AKT phosphorylation and expression by western blot in PC3 prostate tumor cells; format: cell-based; settings: PC3, 5 and 10 micro.M
Protocol: (§1) (A) MeWo melanoma cells growing in 60 mm plates were treated with the indicated concentration of the inhibitor for 4 h before proteins were prepared for western blot analysis using the indicated antibodies. Level of beta.actin was monitored as a control for protein loading. (B) Experiment was performed as indicated in panel A, except that cells were harvested after 24 h for analysis of cell death using trypan blue staining. (C) Melanoma (MeWo), prostate cancer (PC3) and breast cancer (MCF7) cells were treated with BI-69A11 at the indicated concentrations; levels of AKT phosphorylation or expression were assessed 4 h later. The level of beta.actin used as a control for protein loading. (D) Experiment was performed as indicated in panel C, except that cells were harvested after 4 h for analysis of cell death using trypan blue staining.
For western blotting techniques, cells were lysed in RIPA buffer containing 50 mM TrisHCl pH7.4, 150 mM NaCl, 2 mM EDTA, 1% NP-40, 0.1% SDS. The protein concentration was estimated using the Coomassie Protein assay kit (Thermo Scientific, Rockford, Ill., USA). Equal concentrations of cell lysate (30-50 ug) were resolved on a 10% polyacrylamide gel and transferred onto Nitrocellulose membrane (GE Amersham). Membranes were blocked for 1-2 hours in either 3% BSA or 5% nonfat dried milk in Tris-buffered saline containing 0.05% Tween 20. […]

melanocytes = experiment: AKT phosphorylation and toxicity in cultured melanocytes; format: cell-based; settings: data not shown
c-Jun = experiment: Levels of HSP90 client protein c-Jun; format: cell-based; settings: data not shown
From the text: Among cellular proteins implicated in the regulation of AKT levels is the cellular chaperone HSP90. Inhibition of HSP90 chaperone function, as commonly achieved by the geldanamycin antibiotic, interferes with the conformational maturation and refolding of its associated proteins, thereby promoting their degradation (Munster et al., 2002; Neckers and Neckers, 2003). […] Thus we assessed whether association of AKT with HSP90 could be affected by BI-69A11. Immunoprecipitation of AKT from melanoma cells identified HSP90 in the immunoprecipitated material. Such association was however abolished following treatment with the BI-69A11 inhibitor (FIG. 6C). […] To this end, we also performed the experiment in the presence of the proteasome inhibitor MG132.

MeWo melanoma cells = experiment: Cell death by trypan blue staining, MeWo; format: cell-based
Protocol: as §1
To evaluate the effectiveness of BI-69A11 on melanoma cells we assessed the effect of different concentrations on AKT phosphorylation in MeWO cells.
For the proliferation assays, cells were treated as described above. However, instead of scraping cells into the serum-free medium, floating cells were collected in a 15 mL centrifuge tube whereas adherent cells trypsinized gently. The total cell population was pooled and counted on a hemocytometer after staining with Trypan Blue.

Initial MTD assays = settings: in vivo, 5 mg/kg; data not shown; read-out: dose at which MTD assays revealed toxicity
PARP = PARP cleavage in 903 and 29-1 cells; format: cell-based, human; settings: 2, 4 and 6 hours; listed as BI-69A11
Protocol: (A) 903 and 29-1 cells were exposed to different concentrations of BI-69A11 or UV light as a positive control and the percentage of cell death determined by trypan blue exclusion assay. (B) PARP cleavage was determined in 903 and 29-1 cells after treatment with BI-69A11 at 2, 4 and 6 hours.
Since AKT activity is important for tumor cell survival, its inhibition is expected to result in cell death. We thus monitored cell death in melanoma cells that were treated with BI-69A11.
For western blotting techniques, cells were lysed in RIPA buffer containing 50 mM TrisHCl pH7.4, 150 mM NaCl, 2 mM EDTA, 1% NP-40, 0.1% SDS. The protein concentration was estimated using the Coomassie Protein assay kit (Thermo Scientific, Rockford, Ill., USA). Equal concentrations of cell lysate (30-50 ug) were resolved on a 10% polyacrylamide gel and transferred onto Nitrocellulose membrane (GE Amersham). Membranes were blocked for 1-2 hours in either 3% BSA or 5% nonfat dried milk in Tris-buffered saline containing 0.05% Tween 20. Primary antibody incubations were performed overnight at 4° C. with shaking. The blots were washed followed by incubation with a secondary antibody incubation for 1 hour at room temperature. After washing, the blots were scanned on the Odyssey Licor scanner at the appropriate wavelength and the image was captured using the Odyssey software.

[1] = IP 0.5 mg/kg twice per week from week 28

O=C(/C=C/c1nc2ccccc2[nH]1)c1c(O)nc2ccc(Cl)cc2c1-c1ccccc1 [Compound 2, (E)-3-(3-(1H-benzo[d]imidazol-2-yl)acryloyl)-6-chloro-4-phenylquinolin-2(1H)-one]
inhibition in the fibrosarcoma group (NRAS/Ink4a mice; [1]): ~50% | inhibition of melanomas (NRAS/Ink4a mice; [1]): ~68% | share of the 25 melanomas that developed in the treated group (NRAS/Ink4a mice; [1]): 32% | total number of tumors developed (NRAS/Ink4a mice; IP 0.5 mg/kg twice per week from week 28, up to 40 weeks, 30 tumors in control group): 19 | number of melanomas (NRAS/Ink4a mice; IP 0.5 mg/kg twice per week from week 28, control 17): 8 | prevention with administration after 10 weeks compared with after 28 weeks (NRAS/Ink4a mice; mouse, in vivo): as effective as | AKT protein levels (AKT): reduced levels of AKT protein | basal level of AKT phosphorylation (AKT; 4 h): effectively inhibited | AKT phosphorylation in growth factor-maintained melanocytes (melanocytes; coincided with cell death): efficient inhibition of AKT phosphorylation | toxic effect on melanocytes deprived of growth factors (melanocytes; deprived for 24 h): no longer elicit toxic effect | c-Jun protein levels (c-Jun): did not affect | cell death (MeWo melanoma cells; 3 micro.M, within 24 hours): about 60% | cell death (MeWo melanoma cells; 5 micro.M, within 4 hours): about 25% | MTD (Initial MTD assays): 5 mg/kg | PARP cleavage, 903 cells compared with 29-1 (PARP): more pronounced in the UAC903 cells; also recorded: Increased PARP cleavage
